In US9901650B2, “Methods for evaluating brain-wide paravascular pathway for waste clearance function and methods for treating neurodegenerative disorders based thereon” (University of Rochester, priority 2013, dated 2018):
Entries after “also recorded” stand apart in the source; their conditions may differ. Like-named read-outs stand apart in the source and are kept apart here. No end group written: not given here.

What was measured:
[1] = Dynamic integrated MRI-PET imaging after intrathecal infusion; conditions: lumbar intrathecal infusion
Procedure: (§1) Sprague Dawley rats (2-3 month old females) were anesthetized with phenobarbital and lumbar intrathecal catheters placed. Imaging was performed using a custom-built, MRI-compatible PET scanner for the rat brain in combination with a 9.4T microMRI (ref). […] The PET ring (ID 38 mm and accommodating the head of a rat) consists of 12 detector blocks consisting of a 4×8 array of 2.22×2.22×5 mm^3 lutetium oxyorthosilicate (LSO) crystals assembled with a thin reflective foil and coupled to a matching non-magnetic S8550 APD array (ref). PET data are transferred via optical fibers to an external (PCI)-based data acquisition board (ref). For simultaneous PET/MRI imaging a custom-made volume RF coil which fits inside the PET ring was used. The 9.4T microMRI used in all experiments is a superconducting horizontal bore magnet (Bruker Biospin 94/20, 400 MHz, Magnex scientific) interfaced to a Bruker Advance console and controlled by Paravision 5.0 software (Bruker Bio Spin, Billerica, Mass.). The magnet is equipped with an actively shielded combined RT-shim and gradient system (B-GA 12S) that can produce a maximum gradient strength of 200 mT/m. […]

[2] = K-means cluster analysis of contrast-enhanced MRI, 4 mid-sagittal slices
Procedure: Non-parametric segmentation to group voxels in the MRI images on the basis of similar kinetics was performed using a k-means cluster algorithm (PMOD Version 3.307, PMOD Technologies, Ltd, Zurich, Switzerland) on four sagittal slices at the level of the aqueduct from each of the 4D T1-weighted MRIs. A volume-of-interest mask containing the brain only was created for the cluster analysis. The number of clusters (K) used was determined by the K which was able to segment out voxels adjacent to the large vessels such as basilar artery (including pituitary recess) and olfactory artery complex. This was done on an interactive, per animal basis.
All data are presented as mean±SD.

[3] = Dynamic contrast-enhanced MRI after intrathecal infusion of paramagnetic contrast: regional tissue uptake (TACs, mAUC)
Procedure: Female Sprague Dawley rats were used (Taconics, body weight: 220-280 g). For anesthesia, the animals were induced with 3% isofluorane in oxygen using an induction chamber and then received an intra-peritoneal injection of 40 mg/kg […] (Nembutal® Sodium solution, OVATION, Pharmaceuticals, Inc., Deerfield, Ill., USA). The animals were allowed to breathe spontaneously during the entire experiment. Non-invasive monitors (pulse-oximetry, respiratory rate and rectal temperature probe, SA Instruments, Inc., Stony Brook, N.Y.) were placed to assure adequate oxygenation (O2-saturation>97%), ventilation (respiratory rate 50-65 breath per minute) and normal body temperature (36.5° C.-37.5° C.) during the surgical procedures. A 24-gauge catheter was inserted into the tail vein for administration of fluids and supplemental anesthesia. The animal was positioned in a stereotaxic frame (Kopf Instruments, frame #9) and the head flexed to 50 degrees. For the brief surgical procedure, anesthesia was supplemented with isoflurane (0.8-1.2%) delivered in an 1:1 O2:Air mixture.
The atlanto-occipital membrane was exposed via a midline dorsal neck incision and a small incision was made to expose the underlying dura mater. A polyethylene catheter (6-cm long, 0.28 mm ID×0.61 mm OD, (Solomon Scientific, Plymouth Meeting, Pa.)) filled with normal saline was advanced 1-mm into the intrathecal space via a small durotomy made using a 23-gauge needle and was fixed and sealed with super glue. The skin incision was closed around the catheter.
Following surgery, the rats were flipped supine and positioned in a custom-made acrylic cradle fitted with a head fixation device and a snout mask for delivery of supplemental oxygen. The head of the animal was positioned on top of a 3.0 cm custom-made radio-frequency (rf) receiver coil. Non-invasive, MRI compatible monitors (pulse-oximetry, respiratory rate and rectal temperature probe, SA Instruments, Inc., Stony Brook, N.Y.) were repositioned for continuous monitoring of vital signs while the animal underwent MRI imaging. During imaging, body temperature was kept strictly within 36.5-37.5° C. during imaging using a computer assisted air heating system (SA Instruments, Inc., Stony Brook, N.Y.). The intrathecal catheter was connected to a long PE 20 line filled with paramagnetic MR contrast diluted in 0.9% NaCl attached to a 1 cc-syringe and microinfusion pump (Baxter Model AS50 infusion Pump, Baxter Healthcare Corporation, Illinois, USA). The tail vein catheter was used for maintenance hydration (0.9% NaCl, 4 cc/kg/hr) and supplemental anesthesia (Nembutal®, 5-10 mg/kg IV) administered every 2 hrs as guided by the respiratory rate.
All imaging protocols were performed on a 9.4T/20 MRI instrument interfaced to a Bruker Advance console and controlled by Paravision 5.0 software (Bruker Bio Spin, Billerica, Mass.). A custom-made 3-cm surface radio-frequency coil was used as a receiver and a 16-cm diameter volume coil (Bruker) was used as a transmitter. […] For all experiments a 60 mM (1:8 volume ratio diluted in 0.9% NaCl) Gd-DTPA phantom placed in the vicinity of animal's head was used for image intensity normalization over the time series. […] A total of 80 μl of the paramagnetic contrast agent was delivered intrathecally at an infusion rate of 1.6 μl/min (total infusion time: 50 min). After completion of the intrathecal infusion, the 3D MRI acquisitions continued over 3.9 hrs. At the end of the experiment the animal was euthanized with an overdose of Nembutal.
The general MRI image processing procedure consisted of head motion correction, intensity normalization, smoothing and voxel-by-voxel conversion to % of baseline signal. SPM8 (World Wide Web at fil.ion.ucl.ac.uk/spm) was used for this. First, the acquired T1-weighted MRI images were exported as DICOM files and converted to 3D Nlfti image format.

glymphatic system [4] = test: Brain clearance of 125I-Aβ40 and 14C-inulin after injection into the frontal cortex, pharmacological intervention; assay type: in vivo, mice
Procedure: The role of RAS on clearance of exogenous ^125I-Aβ and ^14C-inulin were determined at 30 minutes after their injection into the frontal cortex (Xie et al., 2013).
Briefly, a stainless steel guide cannula was implanted stereotaxically into the right caudate-putamen or frontal cortex of anesthetized mice (ketamine (100 mg/kg) and xylazine (10 mg/kg). For the frontal cortex, the coordinate of the cannula tip was 0.7 mm anterior and 3.0 mm lateral to the bregma, and 1.3 mm below the surface of the brain. Animals were allowed to recover after surgery. The experiments were performed before substantial chronic process occurred, but allowing time for the BBB repair to large molecules, as reported (Deane et al., 2004). Drugs were pre-injected for 10 minutes before injection of the radio-labeled molecules.
Injection of the mixture of tracers: Mock CSF (0.5 μL) containing ^125I-labeled Aβ40 (10 nM monomer) together with ^14C-inulin (0.05 μCi, an inert molecule for bulk flow) was microinfused into brain ISF over 5 minutes.
At the end of the experiments brain was removed and prepared for radioactivity analysis and TCA analyses.
^125I-radioactivities were determined in a gamma counter (Wallac Vizard Gamma Counter, Perkin Elmer). For ^14C-counting, the samples were solubilized in 0.5 ml tissue solubilizer (Perkin Elmer) overnight, followed by addition of 5 ml of scintillation cocktail (Packard Ultima Gold) and analyzed in a liquid scintillation counter (Beckman Coulter Counter).
All calculations of clearance parameters were carried out as described above or by routine methods (Deane et al., 2004; Xie et al., 2013). Briefly, the percentage of radioactivity remaining in the brain after microinjection was determined as % recovery in brain=100×(Nb/Ni), where Nb is the radioactivity remaining in the brain at the end of the experiment and Ni is the radioactivity injected into the brain ISF, i.e., the d.p.m. for ^14C-inulin and the c.p.m. for the TCA-precipitable ^125I-radioactivity. Inulin was used as a metabolically inert polar molecule which is neither transported across the BBB nor retained by the brain; its clearance rate provides a measure of the ISF convective bulk flow. For each group there were 3-6 mice, and data expressed as mean±SEM. P<0.5 was taken as statistically significant as determined using T-test.

glymphatic system [5] = test: Brain influx of 125I-Aβ40 and 14C-inulin after injection into the cisterna magna, pharmacological intervention; assay type: in vivo, mice
[6] = Intra-striate radio-tracer injection: interstitial solute clearance from the brain, wild type vs Aqp4-null
Procedure: To evaluate the pathways and rates of interstitial fluid and solute clearance from the brain, fluorescent and radio-labeled tracers were injected stereotactically into the brain parenchyma. Anesthetized animals were fixed in a stereotaxic frame and a 33GA needle was inserted via a small burr hole into the brain at the following coordinates: intra-cortical injections (0.22 mm caudal, 2.0 mm lateral, 1.75 mm ventral to bregma), intra-striate injections (0.22 mm caudal, 2.5 mm lateral, 3.5 mm ventral to bregma), intrathalamic injections (1.82 mm caudal, 1.25 mm lateral, 3.75 mm ventral to bregma). After needle insertion, 30 minutes was allowed to elapse to allow the needle track to swell closed. 1.0 μl of tracer (dissolved in artificial CSF) was injected at a rate of 17 nl/min.
15 min, 30 min, 1 h or 2h later, the animal was rapidly decapitated and the brain harvested. The brain was solubilized as above, and the radioactivity present in the brain was measured by liquid scintillation spectrometry. All radioactivity values were normalized to 1 μl injection standards taken immediately prior to each intra-parenchymal injection.

[7] = Intracisternal radio-tracer injection: accumulation in the brain parenchyma
Procedure: Anesthetized mice were fixed in a stereotaxic frame and a 30GA needle was inserted into the cisterna magna. For intracisternal injections, 10 μl of CSF tracer was injected at a rate of 2 μl/min over 5 minutes with a syringe pump (Harvard Apparatus).
After 15, 30 or 45 minutes, animals were rapidly decapitated, the skull opened, the dura removed and the brain harvested. The brain was solubilized in 2 ml Soluene (Sigma) at 45° C. overnight. 10 ml Hionic Fluor liquid scintillation cocktail (Perkin Elmer) was added and radioactivity was measured in a Multipurpose Scintillation Counter (Beckman Coulter). Brain radioactivity was normalized to total radioactivity detected in a 10 μl aliquot put directly into a scintillation vial immediately before intracisternal radio-tracer injection and expressed as the % of total injected radioactivity. ^3H-mannitol and ^3H-dextran accumulation in the brain was compared by 2-way ANOVA with Bonferroni's post-hoc test.

AQP4-M1 expression = AQP4-M1 expression by qPCR in cultured primary cortical astrocytes; assay type: cell-based, mouse; conditions: vs. control; siRNA transfected for six days
From the text: (A) The Aqp4 gene has two transcription initiation site, with transcription initiated at each site resulting in two AQP4 mRNA variants: AQP4-M1 which includes Exons 0-4 of the Aqp4 gene and AQP4-M23 which lacks Exon 0. (B) AQP4-M23 (the predominant form in the CNS under physiological conditions) permits perivascular AQP4 packing while AQP4-M1 prevents it; thus increasing AQP4-M1 expression impairs AQP4 polarization (Crane et el. J Biol Chem 2009; Furman et al. Proc Nat Acad Sci 2003). (C) The expression of AQP4-M1 was evaluated by real-time quantitative PCR (qPCR) in the mouse ipsilateral cortex 3 days after TBI using PCR primers specifically targeting Exon 0 of the AQP4-M1 transcript. Compared to AQP4-M1 expression in the control (sham) cortex, TBI increased AQP4-M1 expression by approximately two-fold (*P<0.05, t-test; n=5 per group). (D) Using an siRNA-based approach targeting Exon 0 of the AQP4-M1 variant, the expression of AQP4-M1 could be efficiently knocked down in cultured primary mouse cortical astrocytes. Three siRNA duplexes were designed to target Exon 0 of the AQP4-M1 transcript, and primary mouse astrocytes were transfected with these siRNA duplexes for six days. […] Thus, we tested whether inhibition of STAT3 signaling in primary mouse cortical astrocytes could reduce AQP4-M1 expression. […]

[8] = rat, in vivo
Procedure: as §1

[9] = ratio of average mAUC of region to average mAUC of pituitary recess, mean ± SD
[10] = agent 1 μM, 30 minutes, frontal cortex

## CNC[C@H](O)[C@@H](O)[C@H](O)[C@H](O)CO.CNC[C@H](O)[C@@H](O)[C@H](O)[C@H](O)CO.O=C([O-])CN(CCN(CC(=O)[O-])CC(=O)O)CCN(CC(=O)[O-])CC(=O)O.[Gd+3] [Gd-DTPA, 1-deoxy-1(methylamino)D-glucitol dihydrogen [N,N-bis[2-[bis(carboxymethyl)amino]ethyl]glycinato (5-)]gadolinite(2-)(2:1)]
[1]
  transport through the brain-wide glymphatic pathway: with some ‘restriction’
[2]; most distally labeled voxels
  #Voxels - Zone 3, mean (SD): 18295 (7407)
[2]; para-vascular zone
  #Voxels - Zone 1, mean (SD): 4048 (2146)
[2]; rat, in vivo
  Zone 2#Voxels*AUC/Zone 1#Voxels*AUC, mean (SD): 1.62 (0.60)
  time-to-peak of the para-vascular red cluster: ~90 min
[2]; tissue adjacent to zone 1
  #Voxels - Zone 2, mean (SD): 15835 (5690)
[3]; not normalized, mean ± SD
  mAUC at the pituitary recess: 743±266 % signal change per time interval
[3]; post-injection
  time at which average uptake in the cerebellum peaked / reached apparent plateau: ~90 min
  time of peak of signal changes induced within the parenchyma: 60 to 80 min
[3]; [9]
  mAUC, Aqueduct: 0.34 ± 0.23
  mAUC, Cerebellum: 0.28 ± 0.11
  mAUC, Olfactory Bulb: 0.24 ± 0.11
  mAUC, Pontine Nucleus: 0.17 ± 0.09
[3]; ratio of average mAUC of region to average mAUC of pituitary recess, mean ± SD, intrathecal infusion
  mAUC, Pineal recess: 1.01 ± 0.35

## CC(=N)NCCCC[C@H](N)C(=O)O [L-NIL]
Glymphatic system [4]; 1 mM
  clearance of Aβ: increased
  clearance of inulin: increased
Glymphatic system [5]; mouse, in vivo
  influx of Aβ with dose: dose dependent increase
  influx of inulin with dose: dose dependent increase

## ^125I-amyloid β1-40: radio-labeled amyloid β1-40 peptide tracer
[6]; mouse, in vivo
  rate of clearance from the brain in wild-type mice, in words: exceeded that of either [^3H]mannitol or [^3H]dextran-10
  reduction of clearance from the brain interstitium in Aqp4-null mice compared to wild type: ~55%
[7]; mouse, in vivo
  accumulation in the brain after intracisternal injection, in words: increased in a manner comparable to [^3H]dextran-10

## OC[C@@H](O)[C@@H](O)[C@H](O)[C@H](O)CO [[^3H]mannitol]
[6]; intra-striate injection
  reduction of clearance from the brain interstitium in Aqp4-null mice compared to wild type: ~70%
[7]; % of total injected radioactivity, R2=0.3597
  approximate maximal influx, plateau of one-phase association fit: 39.96±5.55%
[7]; within 45 min of intracisternal injection
  proportion of injected tracer detectable in the brain: ~40%

## O=[N+]([O-])c1ccc2c(c1)S(=O)(=O)C=C2 [STATTIC]
AQP4-M1 expression
  AQP4-M1 expression: significantly reduced

## NC(=O)CC[C@@H]1NC(=O)[C@H](Cc2ccccc2)NC(=O)[C@H](Cc2ccc(O)cc2)NC(=O)[C@@H](N)CSSC[C@@H](C(=O)N2CCC[C@H]2C(=O)N[C@@H](CCCN=C(N)N)C(=O)NCC(N)=O)NC(=O)[C@H](CC(N)=O)NC1=O [vasopressin]
Glymphatic system [4]; [10]
  brain clearance of Aβ: reduced
  brain clearance of inulin: reduced

## angiotensin II: peptide of the renin-angiotensin system acting on AT1R and AT2R
Glymphatic system [4]; [10]
  brain clearance of Aβ: reduced
  brain clearance of inulin: reduced
  levels of Aβ40 remaining in brain (recovery): increase
  levels of inulin remaining in brain (recovery): increase
Glymphatic system [5]; agent 1 μM injected into the cistern magna, 30 minutes
  influx of Aβ40 into brain: decrease
Glymphatic system [5]; angiotensin II 1 μM, losartan route not given, 30 minutes
  influx of inulin into brain: decrease

## atrial natriuretic peptide (ANP): a peptide that reduces body water and sodium (SLRRSSCFGGRMDRIGAQSGLGCNSFRY; ends and bridges not checked; cysteine pairing not given here; UniProt P01160 124-151, looked up)
Glymphatic system [4]; [10]
  brain clearance of Aβ: reduced
  brain clearance of inulin: reduced

## angiotensin (1-7): active angiotensin metabolite acting on the Mas receptor; opposes angiotensin II (DRVYIHP; Angiotensin 1-7; UniProt P01019 25-31, looked up)
Glymphatic system [4]; 1 nM and 10 nM, 15 minute time point
  clearance of Aβ at 15 minutes: increased; also recorded: greater change between concentrations 10 nM and 1 nM
Glymphatic system [4]; 1 μM, 0.1 μM and 0.01 μM, pre-injected into frontal cortex, 30 minutes
  clearance of Aβ with dose: increased progressively with dose

## 2-deoxy-2-(^18F)fluoro-D-glucose [^18FDG]
[8]
  transport through the brain-wide glymphatic pathway: moves rapidly through the brain-wide glymphatic pathway
